Test results published in paper PMC8042727, “Apoptosis-like cell death upon kinetoplastid induction by compounds isolated from the brown algae Dictyota spiralis” (Parasites & Vectors, 2021).

Legend:
Assay type in all cases: cell-based
[1] = system: Leishmania amazonensis promastigotes; assay: Anti-promastigotes assay (AlamarBlue, 72 h); details: for IC50: 72 h, read-out: IC50: promastigote; for IC90: nonlinear regression of AlamarBlue curve, read-out: IC90 Leishmania amazonensis: promastigote
Description: Experiments including in vitro activity assays of isolated compounds 1–3 were performed against the promastigote and amastigote stages of Leishmania amazonensis (MHOM/BR/77/LTB0016) and the epimastigote stage of Trypanosoma cruzi (Y strain). Promastigotes of L. amazonensis were cultured in Schneider’s medium (Sigma-Aldrich, St. Louis, MO, USA). Typanosoma cruzi strain Y was cultured in liver Infusion tryptose (LIT) medium.
The bioassay was performed using the AlamarBlue® method as previously described. Promastigotes of L. amazonensis were grown at 26 °C in RPMI 1640 modified medium (Gibco BRL Life Technologies Inc., Gaithersburg, MD, USA) and supplemented with 10% heat-inactivated fetal bovine serum (FBS). Cultures in the logarithmic phase were seeded in sterilized 96-well microtiter plates (Corning™, Corning, NY, USA) (10^6 parasites/ml) containing the samples dissolved in 1% DMSO at the suitable concentration to be tested in serial dilutions, and Leishmania medium (RPMI 1640) was used to reach a final volume of 200 μl per well; then 10% of AlamarBlue® was added to the entire plate. After an incubation of 72 h, the plate was checked visually using an inverted microscope, then analyzed using an Enspire multimode plate reader (PerkinElmer, Inc., Waltham, MA, USA) at excitation and emission wavelengths of 570 and 585 nm, respectively. Dose–response curves were plotted, and the concentration at which one half of the maximal inhibitory effect was obtained (IC50) was determined. The analyses were performed in triplicate.
(§1) Hoechst dye is a blue-fluorescent dye that stains condensed chromatin of apoptotic cells. To detect DNA condensation, the chromatin condensation/dead cell apoptosis kit was used (Invitrogen, Thermo Fisher Scientific, Waltham, MA, USA). Cells were incubated in the presence of the compounds to be tested at IC90. The IC90 values were determined using nonlinear regression of the AlamarBlue® curve. After 24 h of incubation, cells were harvested and resuspended in medium, following which 1 μl of Hoechst 33342 stock solution was added to parasites and incubated for 20 min. Results were analyzed by cell imaging using the Evos FL cell imaging system (Thermo Fisher Scientific). The experiments were repeated using a double-stain apoptosis detection kit (Hoechst 33342/PI; Thermo Fisher Scientific). […] A positive control was also tested: miltefosine (L. amazonensis) and benznidazole (T. cruzi).

[2] = Cytotoxicity on macrophages (AlamarBlue, 24 h); details: mouse, J774A.1 macrophages, J774A.1, 24 h, read-out: CC50: murine macrophages
Description: Cytotoxicity of the tested molecules was evaluated after 24 h using macrophages of the murine cell line J774.A1 (American Type Culture Collection #TIB-67). The cells were maintained in DMEM medium at 37 °C in a 5% CO2 humidified incubator. The viability of the macrophages was determined with the AlamarBlue assay and the emitted fluorescence was assayed in an Enspire microplate reader (PerkinElmer Inc.) at 570/585 nm. Briefly, 50 µl of macrophages was placed in a 96-well flat bottom plate at a density of 2 × 10^5/ml in RPMI medium supplemented with 10% FBS without phenol. Cells were allowed to adhere for 15 min, and their progress was checked using a Leika inverted microscope (Leika Camera AG, Wetzlar, Germany). At the same time, a serially dilution of the test compounds was made in a deep 96-well plate with the same medium, and then 50 µl of each serially diluted molecule was added to each well of the 96-well flat bottom plate. Finally, 10% of AlamarBlue was added to each well. The plates were incubated at 37 °C in 5% CO2 for 24 h. Dose–response curves were plotted and the 50% cytotoxic concentrations (CC50) were obtained. The analyses were performed in triplicate.

[3] = system: Trypanosoma cruzi epimastigotes (Y strain); assay: In vitro evaluation on T. cruzi epimastigotes (AlamarBlue, 72 h); details: for IC50: 72 h, read-out: IC50: epimastigote; for IC90: nonlinear regression of AlamarBlue curve, read-out: IC90 Trypanosoma cruzi: epimastigote
Description: Experiments including in vitro activity assays of isolated compounds 1–3 were performed against the promastigote and amastigote stages of Leishmania amazonensis (MHOM/BR/77/LTB0016) and the epimastigote stage of Trypanosoma cruzi (Y strain). Promastigotes of L. amazonensis were cultured in Schneider’s medium (Sigma-Aldrich, St. Louis, MO, USA). Typanosoma cruzi strain Y was cultured in liver Infusion tryptose (LIT) medium. The three molecules 1-3 were tested against epimastigotes of T. cruzi. Briefly, the molecules were dissolved in DMSO in 96-well plates and a serially diluted concentration was made in 100 μl of LIT medium supplemented with 10% heat-inactivated FBS. In all tests, a maximum of 1% DMSO was used to dissolve the highest dose of the compounds without inducing any effects on the parasites; epimastigotes in the logarithmic growth phase were then counted, adjusted to 5 × 10^5 cells/ml, distributed on the previous 96-well plate and incubated at 27 °C for 72 h. The plate was observed under an inverted microscope after 72 h of incubation and analyzed statistically as described for the leishmanicidal test. Hoechst dye is a blue-fluorescent dye that stains condensed chromatin of apoptotic cells. To detect DNA condensation, the chromatin condensation/dead cell apoptosis kit was used (Invitrogen, Thermo Fisher Scientific, Waltham, MA, USA). Cells were incubated in the presence of the compounds to be tested at IC90. The IC90 values were determined using nonlinear regression of the AlamarBlue® curve. After 24 h of incubation, cells were harvested and resuspended in medium, following which 1 μl of Hoechst 33342 stock solution was added to parasites and incubated for 20 min. Results were analyzed by cell imaging using the Evos FL cell imaging system (Thermo Fisher Scientific). The experiments were repeated using a double-stain apoptosis detection kit (Hoechst 33342/PI; Thermo Fisher Scientific). […] A positive control was also tested: miltefosine (L. amazonensis) and benznidazole (T. cruzi).

Leishmania amazonensis = assay: ATP level (CellTiter-Glo); details: L. amazonensis, IC90, 24 h, relative to negative control
Description: The CellTiter-Glo® luminescent cell viability assay (Promega, WI, USA) was used to quantify the adenosine triphosphate (ATP) concentration. Cells of the kinetoplastid strains (for both L. amazonensis [2 × 10^6 cells/ml] and T. cruzi [5 × 10^5cells/ml]) were incubated for 24 h with the compounds to be tested, at IC90 and 26 °C. After incubation, the cells were centrifuged and resuspended in 100 μl. To this volume, we added 100 μl of the reactive in white 96-well plates. After incubation, the luminescence signal was measured using the Enspire multimode plate reader. The decrease in ATP level was expressed as a percentage relative to the negative control. Miltefosine and benznidazole were tested as the positive control for L. amazonensis and T. cruzi, respectively.

[4] = system: Leishmania amazonensis promastigotes; assay: DNA condensation assay (Hoechst 33342 / PI); details: L. amazonensis promastigotes, IC90, 24 h
Description: as §1
DNA condensation is an important cellular event, providing evidence of apoptotic cell death. Hoechst dye is a blue-fluorescent dye that stains condensed chromatin. […] Also, using propidium iodine (PI), it is possible to distinguish dead cells, which stain red when PI penetrates the nucleus. The results of staining were evaluated using cell imaging. Different microscopy images are regrouped in Fig. 2 (for L. amazonensis) and Fig. 3 (for T. cruzi). […] A clear reduction in cell number is also evident.

IC50 [1] [µM] | IC90 [1] [µM] | IC50 [3] [µM] | IC90 [3] [µM] | SMILES | CC50 at 24 h [2] [µM] | loss of ATP concentration (Leishmania amazonensis) [%] | chromatin condensation / cell death stage (Hoechst/PI staining) [4]
18.9 ± 5.28 | 39.5 | 13.1 ± 3.62 | 75.4 | CC(C)=CCC[C@](C)(O)[C@@H]1CC[C@@H](C)[C@@H]2CC=C(C)[C@H]2[C@@H]1O [Compound 1, pachydictyol C] | 37 ± 2.74 | – | –
18.9 ± 0.42 | 34.9 | 18.3 ± 0.91 | 104 | C=C1CC[C@@H]([C@@](C)(O)CCC=C(C)C)[C@@H](O)[C@@H]2C(C)=CC[C@@H]12 [Compound 2, dictyol E] | 52.1 ± 6.63 | 26.6 | late apoptotic stage
– | 74.9 | 35.3 ± 4.09 | 140 | C=C(C)[C@H]1CC[C@]2(C)C[C@@H]3O[C@@]3(C)CC/C=C(\C)CC[C@@H]12 [Compound 3, 3,4-epoxy-7,18-dolabelladiene] | 69.98 ± 0.13 | – | late apoptotic stage
